Test results taken from PubChem BioAssay AID1918932 (Molecular Pharmacology Branch, DTP, NCI, 2023).

Tested on: 171881-019-R-J1-PDC complex spheroid viability
Assay: Anticancer human tumor 171881-019-R-J1-PDC patient-derived invasive breast carcinoma cell line growth inhibition
Conditions: for IC50: curve of first compound; for viability, T/C: stronger effect = lower value; active = viability on the fitted dose curve at most 10% of control; inactive = the rest
Procedure, shortened: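 Multicellular complex spheroids of tumor cells with human endothelial cells (HUVEC) and mesenchymal stem cells; the LSD1 inhibitor iadademstat was combined with standard-of-care or investigational agents. Top concentration at or near clinical Cmax, half-log dilutions; final DMSO ≤0.25%.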
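Also: spheroids exposed to agents for 7 days after 3 days growth.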

CC[C@@]1(O)C(=O)OCc2c1cc1n(c2=O)Cc2cc3c(CN(C)C)c(O)ccc3nc2-1 + NC1CCC(NC2CC2c2ccccc2)CC1
> 0.1 µM: IC50 (second compound 0.1 µM) | IC50 (second compound 0.316 µM) | IC50 (second compound 1 µM) | IC50 (second compound 3.16 µM) | IC50 (second compound 10 µM)
inactive: viability, T/C (second compound 0.1 µM, first compound 0.000316 µM) 83.9% | viability, T/C (second compound 0.1 µM, first compound 0.001 µM) 91.8% | viability, T/C (second compound 0.1 µM, first compound 0.00316 µM) 122% | viability, T/C (second compound 0.1 µM, first compound 0.01 µM) 74.7% | viability, T/C (second compound 0.1 µM, first compound 0.0316 µM) 69.5% | viability, T/C (second compound 0.1 µM, first compound 0.1 µM) 50.6% | viability, T/C (second compound 0.316 µM, first compound 0.000316 µM) 80.2% | viability, T/C (second compound 0.316 µM, first compound 0.001 µM) 86.1% | viability, T/C (second compound 0.316 µM, first compound 0.00316 µM) 125% | viability, T/C (second compound 0.316 µM, first compound 0.01 µM) 71.1% | viability, T/C (second compound 0.316 µM, first compound 0.0316 µM) 67.3% | viability, T/C (second compound 0.316 µM, first compound 0.1 µM) 56.5% | viability, T/C (second compound 1 µM, first compound 0.000316 µM) 87.5% | viability, T/C (second compound 1 µM, first compound 0.001 µM) 89.4% | viability, T/C (second compound 1 µM, first compound 0.00316 µM) 128% | viability, T/C (second compound 1 µM, first compound 0.01 µM) 77.6% | viability, T/C (second compound 1 µM, first compound 0.0316 µM) 72.4% | viability, T/C (second compound 1 µM, first compound 0.1 µM) 59% | viability, T/C (second compound 3.16 µM, first compound 0.000316 µM) 95.2% | viability, T/C (second compound 3.16 µM, first compound 0.001 µM) 94.5% | viability, T/C (second compound 3.16 µM, first compound 0.00316 µM) 138% | viability, T/C (second compound 3.16 µM, first compound 0.01 µM) 83.1% | viability, T/C (second compound 3.16 µM, first compound 0.0316 µM) 75.8% | viability, T/C (second compound 3.16 µM, first compound 0.1 µM) 62.3% | viability, T/C (second compound 10 µM, first compound 0.000316 µM) 88% | viability, T/C (second compound 10 µM, first compound 0.001 µM) 93.7% | viability, T/C (second compound 10 µM, first compound 0.00316 µM) 133% | viability, T/C (second compound 10 µM, first compound 0.01 µM) 92.7% | viability, T/C (second compound 10 µM, first compound 0.0316 µM) 90.7% | viability, T/C (second compound 10 µM, first compound 0.1 µM) 76.4%

O=C(C=Cc1cccc(S(=O)(=O)Nc2ccccc2)c1)NO + NC1CC1c1ccc(-c2cccc(O)c2)cc1
0.382 µM: IC50 (second compound 0.1 µM)
0.404 µM: IC50 (second compound 0.316 µM)
0.309 µM: IC50 (second compound 10 µM)
active: viability, T/C (second compound 0.1 µM, first compound 0.949 µM) 1.03% | viability, T/C (second compound 0.1 µM, first compound 3 µM) 0.11% | viability, T/C (second compound 0.316 µM, first compound 0.949 µM) 1.15% | viability, T/C (second compound 0.316 µM, first compound 3 µM) 0.13% | viability, T/C (second compound 1 µM, first compound 0.949 µM) 1.32% | viability, T/C (second compound 1 µM, first compound 3 µM) 0.23% | viability, T/C (second compound 3.16 µM, first compound 0.949 µM) 1.09% | viability, T/C (second compound 3.16 µM, first compound 3 µM) 0.11% | viability, T/C (second compound 10 µM, first compound 0.949 µM) 0.76% | viability, T/C (second compound 10 µM, first compound 3 µM) 0.14%
inactive: viability, T/C (second compound 0.1 µM, first compound 0.00949 µM) 99.8% | viability, T/C (second compound 0.1 µM, first compound 0.03 µM) 104% | viability, T/C (second compound 0.1 µM, first compound 0.0949 µM) 102% | viability, T/C (second compound 0.1 µM, first compound 0.3 µM) 63.1% | viability, T/C (second compound 0.316 µM, first compound 0.00949 µM) 100% | viability, T/C (second compound 0.316 µM, first compound 0.03 µM) 98.5% | viability, T/C (second compound 0.316 µM, first compound 0.0949 µM) 100% | viability, T/C (second compound 0.316 µM, first compound 0.3 µM) 67% | viability, T/C (second compound 1 µM, first compound 0.00949 µM) 104% | viability, T/C (second compound 1 µM, first compound 0.03 µM) 103% | viability, T/C (second compound 1 µM, first compound 0.0949 µM) 103% | viability, T/C (second compound 1 µM, first compound 0.3 µM) 69.9% | viability, T/C (second compound 3.16 µM, first compound 0.00949 µM) 92% | viability, T/C (second compound 3.16 µM, first compound 0.03 µM) 89.5% | viability, T/C (second compound 3.16 µM, first compound 0.0949 µM) 97.2% | viability, T/C (second compound 3.16 µM, first compound 0.3 µM) 64.3% | viability, T/C (second compound 10 µM, first compound 0.00949 µM) 77% | viability, T/C (second compound 10 µM, first compound 0.03 µM) 73.5% | viability, T/C (second compound 10 µM, first compound 0.0949 µM) 85.6% | viability, T/C (second compound 10 µM, first compound 0.3 µM) 51.4%
0.419 µM: IC50 (second compound 1 µM)
0.389 µM: IC50 (second compound 3.16 µM)
